pIC50: −log10 of the molar value.
Legend:
[1] = target: T1, PR (progesterone receptor) (Homo sapiens, UniProt P06401); assay: PR binding study
T1 sequence (P06401 1-933): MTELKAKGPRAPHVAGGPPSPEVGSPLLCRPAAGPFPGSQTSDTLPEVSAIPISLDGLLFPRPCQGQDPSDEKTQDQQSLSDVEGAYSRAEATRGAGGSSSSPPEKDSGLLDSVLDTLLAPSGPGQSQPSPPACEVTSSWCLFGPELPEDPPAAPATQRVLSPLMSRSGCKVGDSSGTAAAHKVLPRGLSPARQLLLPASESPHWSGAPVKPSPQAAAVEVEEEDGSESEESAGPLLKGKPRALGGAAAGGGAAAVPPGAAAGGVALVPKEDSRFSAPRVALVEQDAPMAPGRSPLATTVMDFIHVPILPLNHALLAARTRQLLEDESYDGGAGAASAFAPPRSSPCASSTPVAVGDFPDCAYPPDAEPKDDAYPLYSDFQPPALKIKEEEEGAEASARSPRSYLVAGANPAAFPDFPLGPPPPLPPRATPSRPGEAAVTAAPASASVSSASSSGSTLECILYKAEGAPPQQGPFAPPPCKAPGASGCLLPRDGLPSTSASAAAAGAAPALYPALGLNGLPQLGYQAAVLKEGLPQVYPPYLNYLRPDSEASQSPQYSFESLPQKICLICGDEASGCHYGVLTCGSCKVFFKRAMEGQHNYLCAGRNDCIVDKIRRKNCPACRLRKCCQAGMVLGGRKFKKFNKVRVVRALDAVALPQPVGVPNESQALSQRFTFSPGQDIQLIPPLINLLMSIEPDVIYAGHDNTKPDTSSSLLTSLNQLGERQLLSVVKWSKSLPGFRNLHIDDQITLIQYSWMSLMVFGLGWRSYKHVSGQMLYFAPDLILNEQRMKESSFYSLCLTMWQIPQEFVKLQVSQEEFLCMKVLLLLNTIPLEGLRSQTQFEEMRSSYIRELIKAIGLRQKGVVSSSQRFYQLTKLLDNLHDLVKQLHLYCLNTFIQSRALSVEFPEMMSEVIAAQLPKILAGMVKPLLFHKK
Description: The following abbreviations are used in Table II: MR, mineralocorticoid receptor; GR, glucocorticoid receptor; and PR, progesterone receptor.

CA77 cells = assay: CA77 cell assay, real-time RT-PCR (TaqMan); assay type: cell-based, rat; conditions: CA77 cells
Method: Assay: CA77 cells were plated into 96 well tissue culture dishes at a density of 8×10^4 cells per well in 200 μl of PM and the cultures maintained in a humidified air atmosphere (7.5% CO2) at 37° C. This media was aspirated after 24 hours and replaced with 200 μl of GM and the cultures incubated as before, for an additional 48 hours, at which time the cultures were at approximately 90% confluency.
For the evaluation of agonist activity, the GM was aspirated, replaced with 200 μl of fresh GM containing concentrations of a drug ranging from 0.1 nM to 10,000 nM in a 10-fold dilution series. Control wells of 0 nM drug in GM and 0.1% DMSO in GM were included in the series for each drug. Each drug concentration and the two controls were evaluated on 4 wells. The cultures were maintained in a humidified air atmosphere (7.5% CO2) at 37° C. for 24 hours.
Control wells of 0 nM drug in GM containing 250 nM corticosterone and 0.1% DMSO in GM (without corticosterone) were included in the series for each drug. Each drug concentration and the two controls were evaluated on 4 wells. The cultures were maintained in a humidified air atmosphere (7.5% CO2) at 37° C. for 24 hours.
Lysis of Cells and Isolation of mRNA: Two methods were employed for the lysis of the cells and the isolation of mRNA at the end of the 24-hour incubation with the drugs.
One method was the mRNA Catcher™ Method (using Kit number 37001, sold by Invitrogen Corporation). The GM was aspirated from the cells, the cell monolayer was washed once with PBS (product number 10010, sold by Invitrogen Corporation), and then the cells were lysed in 30 μl of the kit lysis buffer containing 1% β-ME for 5 minutes at room temperature. The lysates were snap frozen in the 96-well plate by placing the plate on dry ice pellets, and the plate was then stored at −80° C.
The lysates were thawed at room temperature and then transferred into individual wells in the mRNA Catcher™ plate. The plate was covered and incubated for 90 minutes at room temperature for RNA hybridization. […]

C[C@@H]1C[C@H]2[C@@H]3CCC4=CC(=O)C=C[C@]4(C)[C@@]3(F)[C@@H](O)C[C@]2(C)[C@@]1(O)C(=O)CO [Dexamethasone, dexamethasone]
pIC50 [1]: < 6.00 | Sult1a1 up-regulation as detected by RT-PCR (CA77 cells): 158 fold

Reference: patent US20100040552A1, “METHODS TO EVALUATE GLUCOCORTICOID RECEPTOR AGONISTS AND ANTAGONISTS FOR EFFECTS ON NEURON-LIKE CELLS” (ROSETTA INPHARMATICS LLC, priority 2005, published 2010)
